ChEMBL document CHEMBL1201862, “PubChem BioAssay data set” (2004)
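These data come from cells grown in 96-well plates and exposed to compound for 48 hours at five concentrations. GI50 marks 50% less growth.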 Activity calls are given as the source filed them. Cut-off read from the data, not from the text of the source: active = GI50 up to about 1.1 µM and inactive = higher.

Experiments:
Test in all cases: NCI anticancer screen, dose series, 48 h
[1] = test system: BT-549
[2] = test system: NCI-H460
[3] = test system: HCT-15
[4] = test system: M14
[5] = test system: HL-60
[6] = test system: MDA-N
[7] = test system: SR
[8] = test system: U-251
[9] = test system: UACC-257
[10] = test system: Malme-3M
[11] = test system: EKVX
[12] = test system: OVCAR-8
[13] = test system: OVCAR-5
[14] = test system: SF-539
[15] = test system: OVCAR-3
[16] = test system: 786-0
[17] = test system: NCI/ADR-RES
[18] = test system: NCI-H23
[19] = test system: MOLT-4
[20] = test system: A498
[21] = test system: IGROV-1
[22] = test system: NCI-H226
[23] = test system: SNB-19
[24] = test system: COLO 205
[25] = test system: LOX IMVI
[26] = test system: MDA-MB-231
[27] = test system: OVCAR-4
[28] = test system: TK-10
[29] = test system: SK-OV-3
[30] = test system: A549
[31] = test system: K562
[32] = test system: SN12C
[33] = test system: HCC 2998
[34] = test system: UO-31
[35] = test system: CAKI-1
[36] = test system: DU-145
[37] = test system: SK-MEL-28
[38] = test system: SF-268
[39] = test system: HT-29
[40] = test system: CCRF-CEM
[41] = test system: SNB-75
[42] = test system: HCT-116
[43] = test system: SW-620
[44] = test system: Hs-578T
[45] = test system: SK-MEL-2
[46] = test system: HOP-92
[47] = test system: SF-295
[48] = test system: MCF7
[49] = test system: MDA-MB-435
[50] = test system: ACHN
[51] = test system: SK-MEL-5
[52] = test system: NCI-H522
[53] = test system: KM12
[54] = test system: RPMI-8226
[55] = test system: HOP-62
[56] = test system: T47D
[57] = test system: UACC-62
[58] = test system: PC-3
[59] = test system: RXF 393

## CCOC(=O)/C(=C\c1ccc(N(C)C)cc1)S(=O)(=O)C(F)(F)C(F)(F)C(F)(F)C(F)(F)F
[1]
  GI50: 52.6 µM (inactive)
[2]
  GI50: > 100 µM (inactive)
[3]
  GI50: > 100 µM
[4]
  GI50: > 100 µM (inactive)
[5]
  GI50: > 100 µM (inactive)
[6]
  GI50: > 100 µM (inactive)
[7]
  GI50: > 100 µM (inactive)
[8]
  GI50: > 100 µM (inactive)
[9]
  GI50: > 100 µM (inactive)
[10]
  GI50: > 100 µM (inactive)
[11]
  GI50: > 100 µM (inactive)
[12]
  GI50: > 100 µM (inactive)
[13]
  GI50: > 100 µM (inactive)
[14]
  GI50: > 100 µM (inactive)
[15]
  GI50: > 100 µM (inactive)
[16]
  GI50: > 100 µM (inactive)
[17]
  GI50: > 100 µM (inactive)
[18]
  GI50: > 100 µM (inactive)
[19]
  GI50: > 100 µM (inactive)
[20]
  GI50: > 100 µM (inactive)
[21]
  GI50: > 100 µM (inactive)
[22]
  GI50: > 100 µM (inactive)
[23]
  GI50: > 100 µM (inactive)
[24]
  GI50: > 100 µM (inactive)
[25]
  GI50: > 100 µM (inactive)
[26]
  GI50: > 100 µM (inactive)
[27]
  GI50: > 100 µM (inactive)
[28]
  GI50: 13 µM (inactive)
[29]
  GI50: > 100 µM (inactive)
[30]
  GI50: > 100 µM (inactive)
[31]
  GI50: > 100 µM (inactive)
[32]
  GI50: > 100 µM (inactive)
[33]
  GI50: > 100 µM (inactive)
[34]
  GI50: 55.1 µM (inactive)
[35]
  GI50: > 100 µM (inactive)
[36]
  GI50: > 100 µM (inactive)
[37]
  GI50: > 100 µM (inactive)
[38]
  GI50: > 100 µM (inactive)
[39]
  GI50: > 100 µM (inactive)
[40]
  GI50: > 100 µM (inactive)
[41]
  GI50: > 100 µM (inactive)
[42]
  GI50: > 100 µM (inactive)
[43]
  GI50: > 100 µM (inactive)
[44]
  GI50: > 100 µM (inactive)
[45]
  GI50: > 100 µM (inactive)
[46]
  GI50: > 100 µM (inactive)
[47]
  GI50: > 100 µM (inactive)
[48]
  GI50: > 100 µM (inactive)
[49]
  GI50: > 100 µM (inactive)
[50]
  GI50: > 100 µM (inactive)
[51]
  GI50: > 100 µM (inactive)
[52]
  GI50: > 100 µM (inactive)
[53]
  GI50: > 100 µM (inactive)
[54]
  GI50: > 100 µM (inactive)
[55]
  GI50: > 100 µM (inactive)
[56]
  GI50: > 100 µM (inactive)
[57]
  GI50: > 100 µM (inactive)
[58]
  GI50: > 100 µM (inactive)

## COc1ccc(P2(=S)SP(=S)(c3ccc(Cl)cc3)S2)cc1 (stereo unspecified)
[1]
  GI50: > 100 µM (inactive)
[2]
  GI50: > 100 µM (inactive)
[3]
  GI50: > 100 µM
[4]
  GI50: > 100 µM (inactive)
[5]
  GI50: > 100 µM (inactive)
[6]
  GI50: > 100 µM (inactive)
[7]
  GI50: > 100 µM (inactive)
[8]
  GI50: > 100 µM (inactive)
[9]
  GI50: > 100 µM (inactive)
[10]
  GI50: > 100 µM (inactive)
[59]
  GI50: > 100 µM (inactive)
[11]
  GI50: > 100 µM (inactive)
[12]
  GI50: > 100 µM (inactive)
[13]
  GI50: > 100 µM (inactive)
[14]
  GI50: > 100 µM (inactive)
[15]
  GI50: > 100 µM (inactive)
[16]
  GI50: > 100 µM (inactive)
[17]
  GI50: > 100 µM (inactive)
[18]
  GI50: > 100 µM (inactive)
[19]
  GI50: > 100 µM (inactive)
[20]
  GI50: > 100 µM (inactive)
[21]
  GI50: > 100 µM (inactive)
[22]
  GI50: > 100 µM (inactive)
[23]
  GI50: > 100 µM (inactive)
[24]
  GI50: > 100 µM (inactive)
[25]
  GI50: > 100 µM (inactive)
[26]
  GI50: > 100 µM (inactive)
[27]
  GI50: > 100 µM (inactive)
[28]
  GI50: > 100 µM (inactive)
[29]
  GI50: > 100 µM (inactive)
[30]
  GI50: > 100 µM (inactive)
[32]
  GI50: > 100 µM (inactive)
[33]
  GI50: > 100 µM (inactive)
[34]
  GI50: > 100 µM (inactive)
[35]
  GI50: > 100 µM (inactive)
[36]
  GI50: > 100 µM (inactive)
[37]
  GI50: > 100 µM (inactive)
[38]
  GI50: > 100 µM (inactive)
[39]
  GI50: > 100 µM (inactive)
[40]
  GI50: > 100 µM (inactive)
[41]
  GI50: > 100 µM (inactive)
[42]
  GI50: > 100 µM (inactive)
[43]
  GI50: > 100 µM (inactive)
[44]
  GI50: > 100 µM (inactive)
[45]
  GI50: > 100 µM (inactive)
[46]
  GI50: > 100 µM (inactive)
[47]
  GI50: > 100 µM (inactive)
[48]
  GI50: > 100 µM (inactive)
[49]
  GI50: > 100 µM (inactive)
[50]
  GI50: > 100 µM (inactive)
[51]
  GI50: > 100 µM (inactive)
[52]
  GI50: > 100 µM (inactive)
[53]
  GI50: > 100 µM (inactive)
[54]
  GI50: > 100 µM (inactive)
[55]
  GI50: > 100 µM (inactive)
[56]
  GI50: > 100 µM (inactive)
[57]
  GI50: > 100 µM (inactive)
[58]
  GI50: > 100 µM (inactive)
